The results in this text go back to paper PMC7931429 (ACS Omega, 2021).

A word on the pIC50: it is −log10 of the IC50, conventionally taken in molar units.

In experiment [1] the test system is CHIKV-NanoLuc. The experiment can be described thus: Antiviral activity against CHIKV-NanoLuc in RPE cells. In kind it is cell-based. The settings on record: Chikungunya virus, 48 h, read-out: IC50 in RPE cells.
For experiment [2], the system named is CHIKV-NanoLuc. In kind it is cell-based, Chikungunya virus. The settings on record: BHK-21 cells, MOI 10, 6 h post infection, concentration 10 times higher than IC50.
A further experiment has as its target T1, CHIKV nsP2 (Chikungunya virus, UniProt Q8JUX6).
T1 sequence (Q8JUX6 536-1333 limits assumed): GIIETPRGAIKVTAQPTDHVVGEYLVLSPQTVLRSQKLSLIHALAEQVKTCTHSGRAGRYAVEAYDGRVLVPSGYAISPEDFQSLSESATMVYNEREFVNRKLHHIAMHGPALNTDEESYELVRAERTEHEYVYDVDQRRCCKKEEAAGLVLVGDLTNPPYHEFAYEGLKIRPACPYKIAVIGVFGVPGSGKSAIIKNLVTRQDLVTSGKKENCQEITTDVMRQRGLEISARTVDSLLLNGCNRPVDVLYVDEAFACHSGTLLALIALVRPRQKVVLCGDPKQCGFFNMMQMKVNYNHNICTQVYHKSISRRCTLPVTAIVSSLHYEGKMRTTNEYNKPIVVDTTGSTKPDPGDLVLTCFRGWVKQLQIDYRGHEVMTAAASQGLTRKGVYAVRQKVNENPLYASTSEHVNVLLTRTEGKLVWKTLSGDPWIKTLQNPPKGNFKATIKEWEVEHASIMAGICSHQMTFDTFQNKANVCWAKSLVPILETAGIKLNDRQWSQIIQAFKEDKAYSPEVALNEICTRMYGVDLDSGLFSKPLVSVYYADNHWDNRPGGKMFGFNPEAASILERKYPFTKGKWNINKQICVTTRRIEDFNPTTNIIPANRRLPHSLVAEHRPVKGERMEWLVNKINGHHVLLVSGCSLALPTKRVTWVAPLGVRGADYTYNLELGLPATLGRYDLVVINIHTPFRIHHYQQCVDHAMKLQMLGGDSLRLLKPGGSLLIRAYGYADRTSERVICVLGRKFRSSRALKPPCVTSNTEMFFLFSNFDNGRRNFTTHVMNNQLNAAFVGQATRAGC
Nature of the experiment: Cell-free protease inhibition assay with recombinant CHIKV nsP2. The experiment is classed as biochemical. Conditions: inhibitor 1 mM, nsP2 1.4 μM, substrate 6 μM, 30 °C, 1.5 h.

pIC50: −log10 of the molar value.

For `O=C(Nc1ncc([N+](=O)[O-])s1)c1ccccc1O` [Compound 10, 2-hydroxy-N-(5-nitro-1,3-thiazol-2-yl)benzamide], the pIC50 in the experiment on CHIKV-NanoLuc [1] was 5.14. Besides, the “Virus replication (ns-protein and capsid protein expression) by western blot” value in the experiment on CHIKV-NanoLuc [2] is recorded as “completely inhibited”. Also, the “Effect on protease activity of nsP2 (amount of cleavage product)” value (“Effect on protease activity of nsP2” for short) on CHIKV nsP2 is reported as “strongest inhibitory effect”.
In the case of `O=C(Nc1ncc([N+](=O)[O-])s1)c1cccc(Cl)c1` [Compound 10b, 3-chloro-N-(5-nitro-1,3-thiazol-2-yl)benzamide], the “Effect on protease activity of nsP2” value at CHIKV nsP2 is listed as “smaller inhibitory effect than compound 10”.
For `O=C(Nc1ncc([N+](=O)[O-])s1)c1cc(Cl)ccc1Cl` [Compound 10c, 2,5-dichloro-N-(5-nitro-1,3-thiazol-2-yl)benzamide], the “Effect on protease activity of nsP2” value on CHIKV nsP2 was “smaller inhibitory effect than compound 10”.
Turning to “(5Z)-3-ethyl-5-(naphthalen-1-ylmethylidene)-2-sulfanylidene-1,3-oxazolidin-4-one [Compound 1]”, the “Effect on protease activity of nsP2” value at CHIKV nsP2 is “no effect”.
